Patent publication US9402821B2, “Methods and pharmaceutical compositions for treatment of cystic fibrosis” (INSERM (Institut National de la sante et de la Recherche …, priority 2012, dated 2016)

Target: T1, ENaC (Homo sapiens, UniProt P37088+P51168+P51170)
T1 construct: endogenous in cells; host or cells: primary human nasal epithelial cells (HNEC)
T1 sequence (P37088 1-669): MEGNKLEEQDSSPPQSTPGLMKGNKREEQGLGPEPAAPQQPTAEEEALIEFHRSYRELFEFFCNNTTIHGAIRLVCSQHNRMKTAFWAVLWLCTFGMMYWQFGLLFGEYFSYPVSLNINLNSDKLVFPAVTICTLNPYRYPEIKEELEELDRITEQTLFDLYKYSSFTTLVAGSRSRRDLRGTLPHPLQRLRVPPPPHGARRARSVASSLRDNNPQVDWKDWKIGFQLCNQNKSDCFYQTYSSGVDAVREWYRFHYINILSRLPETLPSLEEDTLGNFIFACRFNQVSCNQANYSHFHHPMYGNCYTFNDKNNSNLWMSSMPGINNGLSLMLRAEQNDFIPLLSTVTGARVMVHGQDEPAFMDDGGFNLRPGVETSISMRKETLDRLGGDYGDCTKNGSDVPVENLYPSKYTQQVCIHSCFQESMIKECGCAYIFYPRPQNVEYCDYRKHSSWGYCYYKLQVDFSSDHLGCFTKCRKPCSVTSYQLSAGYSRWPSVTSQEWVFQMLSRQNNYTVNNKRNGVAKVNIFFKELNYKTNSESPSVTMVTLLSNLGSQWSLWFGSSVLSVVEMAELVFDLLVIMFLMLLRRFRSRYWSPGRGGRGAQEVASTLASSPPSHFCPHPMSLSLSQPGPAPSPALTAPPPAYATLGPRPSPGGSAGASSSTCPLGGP
T1 sequence (P51168 1-640): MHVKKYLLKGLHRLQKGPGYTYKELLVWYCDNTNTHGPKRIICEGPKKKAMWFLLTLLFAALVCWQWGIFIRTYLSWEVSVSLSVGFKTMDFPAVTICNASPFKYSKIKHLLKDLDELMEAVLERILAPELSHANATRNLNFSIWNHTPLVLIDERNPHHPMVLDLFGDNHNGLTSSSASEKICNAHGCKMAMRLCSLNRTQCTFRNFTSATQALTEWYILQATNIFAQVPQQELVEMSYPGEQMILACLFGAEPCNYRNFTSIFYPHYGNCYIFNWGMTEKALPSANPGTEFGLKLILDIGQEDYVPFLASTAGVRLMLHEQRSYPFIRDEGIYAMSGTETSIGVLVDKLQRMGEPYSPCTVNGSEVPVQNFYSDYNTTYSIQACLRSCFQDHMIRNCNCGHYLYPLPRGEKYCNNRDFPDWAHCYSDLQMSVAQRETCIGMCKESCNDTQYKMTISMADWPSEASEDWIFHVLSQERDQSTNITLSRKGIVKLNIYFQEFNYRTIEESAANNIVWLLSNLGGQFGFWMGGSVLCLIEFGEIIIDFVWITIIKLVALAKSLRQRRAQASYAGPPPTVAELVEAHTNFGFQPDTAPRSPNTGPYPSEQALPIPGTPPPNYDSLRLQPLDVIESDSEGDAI
T1 sequence (P51170 1-649): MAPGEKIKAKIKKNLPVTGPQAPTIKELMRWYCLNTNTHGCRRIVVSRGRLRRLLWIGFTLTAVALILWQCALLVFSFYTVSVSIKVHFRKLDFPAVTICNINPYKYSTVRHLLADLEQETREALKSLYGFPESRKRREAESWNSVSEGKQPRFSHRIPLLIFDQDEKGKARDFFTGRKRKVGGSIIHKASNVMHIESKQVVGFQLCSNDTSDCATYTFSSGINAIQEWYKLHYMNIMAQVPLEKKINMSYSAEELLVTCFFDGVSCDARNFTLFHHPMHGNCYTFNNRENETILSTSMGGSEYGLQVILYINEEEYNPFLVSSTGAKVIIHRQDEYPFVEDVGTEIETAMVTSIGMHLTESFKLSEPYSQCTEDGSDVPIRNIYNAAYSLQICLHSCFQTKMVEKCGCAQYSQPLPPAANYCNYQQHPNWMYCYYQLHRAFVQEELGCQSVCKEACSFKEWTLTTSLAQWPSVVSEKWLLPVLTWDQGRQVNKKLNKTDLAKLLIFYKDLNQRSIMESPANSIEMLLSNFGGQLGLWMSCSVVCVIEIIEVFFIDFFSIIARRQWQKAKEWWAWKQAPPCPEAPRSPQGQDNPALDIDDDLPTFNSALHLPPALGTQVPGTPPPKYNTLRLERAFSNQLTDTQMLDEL
Test: Short circuit current, amiloride sensitive transport in HNEC
Type: cell-based
Settings: primary HNEC; 500 μM basolateral, 2 h
Description: B. Chloride activity in HeLa Wt cells was measured by MQAE assay, after 3 h of treatment by NSAID (500 μM) or diluent. CFTR activity was expressed in rate of UFA/sec, calculated by difference between ((Ft−F0)/t) with CFTR induction and ((Ft−F0)/t) without CFTR induction. […] C. Primary culture of human nasal epithelial cell (HNEC) grown on Snapwell filters (air-liquid interface) were exposed basolaterally to sulindac (500 μM) or vehicle for 2 h and immediately mounted into a voltage-clamp system to bioelectric measurements. Short circuit current was measured with addition of amiloride to evaluated amiloride sensitive transport or with forskolin and IBMX for induced cAMP-dependent Cl secretion.
Two cell models were used to the interface air-liquid model for ionic efflux assays by short circuit current and to dose the basolateral IL-8 secretion. Calu-3 are derived from lung adenocarcinoma and are able to polarized and express a high rate of endogenous CFTR. […] Transepithelial resistance and transepithelial potential difference were measured every 3 days using a microvoltmeter (World Precision Instruments, Astonbury, UK).
Cells were grown at 37° C. in a 5% CO2 incubator in DMEM with Glutamax (Invitrogen) and 10% fetal bovine serum (SVF). […] The effects of treatment in HNEC cultures on snapwell inserts were evaluated between days 10 and 16. […]

Which “ENaC activity (amiloride sensitive short circuit current)” value does the source give for CC1=C(CC(=O)O)c2cc(F)ccc2/C1=C\c1ccc([S+](C)[O-])cc1 (stereo not shown) [sulindac, (Z)-5-fluoro-2-methyl-1-[p-(methylsulfinyl)benzylidene]-indene-3-acetic acid] here?
Its value is “not induced modification of ENaC activity”.
